Assay results as given in BindingDB's records for patent US20240116948 (Chiesi Farmaceutici, 2024).

molecular target: T1, TGF-beta receptor type-1 (Homo sapiens, UniProt P36897); experiment: In Vitro Assay
T1 sequence (P36897 whole entry): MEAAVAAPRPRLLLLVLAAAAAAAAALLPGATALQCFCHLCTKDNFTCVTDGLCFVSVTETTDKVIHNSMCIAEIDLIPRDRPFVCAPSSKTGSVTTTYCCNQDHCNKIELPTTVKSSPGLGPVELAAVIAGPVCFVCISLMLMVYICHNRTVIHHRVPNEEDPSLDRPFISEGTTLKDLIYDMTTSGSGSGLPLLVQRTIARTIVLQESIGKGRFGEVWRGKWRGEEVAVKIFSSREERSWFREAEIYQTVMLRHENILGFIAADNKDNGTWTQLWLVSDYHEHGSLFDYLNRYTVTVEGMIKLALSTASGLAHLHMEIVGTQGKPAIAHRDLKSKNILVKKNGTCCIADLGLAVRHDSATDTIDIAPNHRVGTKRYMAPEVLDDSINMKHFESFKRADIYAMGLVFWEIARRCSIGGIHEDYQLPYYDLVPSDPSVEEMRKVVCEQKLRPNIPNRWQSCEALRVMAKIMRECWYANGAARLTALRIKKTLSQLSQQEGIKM
Method: The enzymatic activity of compounds of the present invention was monitored measuring the formation of ADP using the ADP-GLO Kinases assay. Following the incubation of the purified enzyme, a substrate and ATP, the produced ADP was converted into ATP, which in turn was converted into light by Ultra-Glo Luciferase. The luminescent signal positively correlated with ADP amount and kinase activity. Briefly, the kinase reaction was performed by incubating 2.6 nM of the purified, commercially available human ALK5 (recombinant TGF 31 N-term GST-tagged, 80-end), a final concentration of TGFβ1 peptide 94.5 μM (Promega, T36-58) and ultra-pure ATP (Promega V915B). The ATP concentration was set at the Km value (concentration of substrate which permits the enzyme to achieve half maximal velocity (Vmax)) of ALK5 (5 μM). All reactions/incubations were performed at 25° C. Compound and ALK5 kinase were mixed and incubated for 15 mins. Reactions were initiated by addition of ATP at a final concentration in the assay of […]. After an incubation of 150 min, the reaction was stopped, and ADP production detected with ADP-Glo kit according to manufacturer's indications. The assay was performed in 384-well format and was validated using a selection of reference compounds that was tested in 11 point concentration-response curve.

Compound	IC50
CN(CCO)CCC(=O)Nc1cncc(-c2cc(-c3cc(Cl)ccc3F)nc3c2OCCN3)c1 [US20240116948, Example 44]	< 1 nM
CN1CCC(Oc2cncc(-c3cc(-c4cc(Cl)ccc4F)nc4c3OCCN4)c2)CC1 [US20240116948, Example 41]	< 1 nM
CNCCCC(=O)Nc1cncc(-c2cc(-c3cc(Cl)ccc3F)nc3c2OCCN3)c1 [US20240116948, Example 31]	< 1 nM
CN(C)CCC(=O)Nc1cncc(-c2cc(-c3cc(Cl)ccc3F)nc3c2OCCN3)c1 [US20240116948, Example 8]	< 1 nM

More lines, now with the values ahead:

IC50	Compound
< 1 nM	O=C(CCN1CCCC1)Nc1cncc(-c2cc(-c3cc(Cl)ccc3F)nc3c2OCCN3)c1 [US20240116948, Example 12]
< 1 nM	CN(C)CCCOc1cncc(-c2cc(-c3cc(Cl)ccc3F)nc3c2OCCN3)c1 [US20240116948, Example 27]
